Reference: ChEMBL document CHEMBL3301562, “MMV Box screening against Plasmodium falciparum protein kinases and aminoacyl tRNA synthetases”

Assays:
Type in all cases: functional
[1] = target: Calcium-dependent protein kinase 1 (Plasmodium falciparum, UniProt P62344); experiment: MMV: CDPK1 Protein kinase inhibition assay using recombinant PfCDPK1, syntide 2 peptide substrate, ATP and KinaseGlo to measure % inhibition at 1 uM MMV box compound.
Proline--tRNA ligase = target: T1, Proline--tRNA ligase (Plasmodium falciparum (isolate 3D7), UniProt Q8I5R7); experiment: MMV: ProRS recombinant Plasmodium falciparum Prolyl-tRNA-synthetase, assay with yeast tRNA, ATP, and proline and 3 uM MMV malaria box compound, assay read out with kinase glo as % inhibition.
T1 sequence (Q8I5R7 whole entry): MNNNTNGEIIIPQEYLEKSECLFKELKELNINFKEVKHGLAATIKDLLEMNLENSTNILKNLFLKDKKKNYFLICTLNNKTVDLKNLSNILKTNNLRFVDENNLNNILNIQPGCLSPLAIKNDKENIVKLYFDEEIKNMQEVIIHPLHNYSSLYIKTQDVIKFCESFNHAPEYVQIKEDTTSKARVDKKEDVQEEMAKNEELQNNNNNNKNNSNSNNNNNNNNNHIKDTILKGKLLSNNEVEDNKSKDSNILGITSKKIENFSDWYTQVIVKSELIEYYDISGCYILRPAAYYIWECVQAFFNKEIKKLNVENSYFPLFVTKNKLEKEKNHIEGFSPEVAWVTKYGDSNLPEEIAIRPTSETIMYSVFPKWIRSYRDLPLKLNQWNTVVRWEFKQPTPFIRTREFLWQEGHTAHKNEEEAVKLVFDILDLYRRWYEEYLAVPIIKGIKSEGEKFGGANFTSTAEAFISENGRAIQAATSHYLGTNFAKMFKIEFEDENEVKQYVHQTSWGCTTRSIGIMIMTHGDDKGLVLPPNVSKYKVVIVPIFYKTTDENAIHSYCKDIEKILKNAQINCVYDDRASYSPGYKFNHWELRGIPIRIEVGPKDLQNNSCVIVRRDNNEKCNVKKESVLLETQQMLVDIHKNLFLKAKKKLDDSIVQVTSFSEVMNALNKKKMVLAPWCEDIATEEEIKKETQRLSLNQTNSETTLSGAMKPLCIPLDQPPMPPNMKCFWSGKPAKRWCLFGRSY

[2] = target: T2, Cdk-related protein kinase 6 (Plasmodium falciparum, UniProt O77239); experiment: Final concentrations were 1.5 uM ATP, 5 mM MnCl2, and 15 ug/ml PK6 in a buffer of 100 mM Tris-HCl (pH 7.5). 50 ug/mL MBP was provided as the substrate; 10 uM staurosporine was used as a control inhibitor. Incubation time was 3 hours and 40 minutes.The catalytic activity of each kinase was considered proportional to ATP consumed, as determined from measurements of residual [ATP] with the luciferase-based reagent Kinase-Glo (Promega) following incubation. Luminescence (proportional to residual [ATP]) was measured on the plate readers FLx800 (BioTek Instruments, Winooski, VT, USA) and MicroBeta2.
T2 sequence (O77239 whole entry): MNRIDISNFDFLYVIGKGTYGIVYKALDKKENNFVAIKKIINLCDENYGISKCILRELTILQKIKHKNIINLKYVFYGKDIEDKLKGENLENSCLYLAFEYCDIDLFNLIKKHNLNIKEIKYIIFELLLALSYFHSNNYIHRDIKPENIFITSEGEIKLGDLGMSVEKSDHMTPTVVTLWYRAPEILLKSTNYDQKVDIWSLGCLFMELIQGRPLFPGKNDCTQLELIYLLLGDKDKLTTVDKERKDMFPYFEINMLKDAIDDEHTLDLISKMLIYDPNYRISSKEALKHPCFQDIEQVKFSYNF

[3] = target: T3, Mitogen-activated protein kinase (Plasmodium falciparum, UniProt Q25917); experiment: Final concentrations were 1 uM ATP, 0.5 mM DTT, 1 mM MgCl2, 0.5 mg/mL BSA, and 10 ug/ml MAP2 in a buffer of 50 mM HEPES (pH 7.0). 0.5 mg/mL histone III-S served as the substrate (13); 100 uM AMP-PNP, an ATP analog, was used as a control inhibitor. Incubation time was 4 hours.
T3 sequence (Q25917 whole entry): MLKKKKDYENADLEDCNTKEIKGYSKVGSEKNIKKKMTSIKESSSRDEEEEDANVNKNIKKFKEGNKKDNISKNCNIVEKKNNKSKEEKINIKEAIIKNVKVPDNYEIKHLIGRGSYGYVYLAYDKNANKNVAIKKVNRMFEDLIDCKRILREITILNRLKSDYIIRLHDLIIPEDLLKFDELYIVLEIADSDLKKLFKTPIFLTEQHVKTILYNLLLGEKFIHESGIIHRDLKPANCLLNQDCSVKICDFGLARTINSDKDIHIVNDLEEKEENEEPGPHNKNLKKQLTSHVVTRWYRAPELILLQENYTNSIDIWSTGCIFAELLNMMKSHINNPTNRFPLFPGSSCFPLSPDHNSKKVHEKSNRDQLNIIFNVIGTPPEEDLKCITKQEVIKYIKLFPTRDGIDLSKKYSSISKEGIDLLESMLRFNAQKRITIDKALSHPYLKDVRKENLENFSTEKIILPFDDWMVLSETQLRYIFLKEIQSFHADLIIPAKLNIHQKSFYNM

Lysine--tRNA ligase = Lysine--tRNA ligase (Plasmodium falciparum (isolate 3D7), UniProt Q8IDJ8); experiment: MMV: KRS recombinant Plasmodium falciparum Lysyl-tRNA-synthetase, assay with yeast tRNA, ATP, and lysine and 3 uM MMV malaria box compound, assay read out with kinase glo as % inhibition.
[4] = target: T4, Calcium-dependent protein kinase 4 (Plasmodium falciparum (isolate 3D7), UniProt Q8IBS5); experiment: MMV: CDPK4 Protein kinase inhibition assay using recombinant PfCDPK4, syntide2 peptide substrate, ATP and KinaseGlo to measure % inhibition at 1 uM MMV box compound.
T4 sequence (Q8IBS5 whole entry): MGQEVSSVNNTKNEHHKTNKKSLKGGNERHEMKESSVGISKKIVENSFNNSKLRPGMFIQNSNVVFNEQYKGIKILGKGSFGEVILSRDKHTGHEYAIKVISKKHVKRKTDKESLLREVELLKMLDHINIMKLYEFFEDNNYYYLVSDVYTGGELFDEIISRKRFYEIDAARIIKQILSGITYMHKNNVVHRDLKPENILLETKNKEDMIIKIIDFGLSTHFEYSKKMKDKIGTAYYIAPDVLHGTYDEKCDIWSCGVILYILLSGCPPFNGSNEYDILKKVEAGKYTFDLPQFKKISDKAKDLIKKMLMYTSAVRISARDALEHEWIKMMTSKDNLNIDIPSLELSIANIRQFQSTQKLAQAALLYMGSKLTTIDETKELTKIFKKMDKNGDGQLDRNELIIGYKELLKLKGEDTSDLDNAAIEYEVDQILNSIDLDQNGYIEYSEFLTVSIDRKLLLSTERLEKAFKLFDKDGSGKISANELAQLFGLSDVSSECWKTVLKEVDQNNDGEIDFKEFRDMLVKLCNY

[5] = target: T5, Putative uncharacterized protein pk7 (Plasmodium falciparum, UniProt O96214); experiment: Final concentrations were 1 uM ATP, 2 mM DTT, 20 mM MgCl2, 2 mM MnCl2, 0.01% BSA, and 6 ug/ml PK7, in a buffer of 20 mM Tris-HCl (pH 7.5). The enzyme itself was the only substrate present (since autophosphorylation occurs); 100 uM 1NA-PP1 was used as a control inhibitor. Incubation time was 3 hours.
T5 sequence (O96214 whole entry): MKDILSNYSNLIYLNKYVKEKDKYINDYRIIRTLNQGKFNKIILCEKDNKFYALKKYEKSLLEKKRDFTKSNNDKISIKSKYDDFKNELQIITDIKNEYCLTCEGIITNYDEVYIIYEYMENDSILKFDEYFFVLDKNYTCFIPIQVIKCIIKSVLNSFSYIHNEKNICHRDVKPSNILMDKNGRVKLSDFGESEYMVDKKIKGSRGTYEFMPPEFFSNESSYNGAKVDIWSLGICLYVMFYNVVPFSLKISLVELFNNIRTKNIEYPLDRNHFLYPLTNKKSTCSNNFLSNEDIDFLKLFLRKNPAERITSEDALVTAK

Lysine--tRNA ligase, sequence (Q8IDJ8 whole entry): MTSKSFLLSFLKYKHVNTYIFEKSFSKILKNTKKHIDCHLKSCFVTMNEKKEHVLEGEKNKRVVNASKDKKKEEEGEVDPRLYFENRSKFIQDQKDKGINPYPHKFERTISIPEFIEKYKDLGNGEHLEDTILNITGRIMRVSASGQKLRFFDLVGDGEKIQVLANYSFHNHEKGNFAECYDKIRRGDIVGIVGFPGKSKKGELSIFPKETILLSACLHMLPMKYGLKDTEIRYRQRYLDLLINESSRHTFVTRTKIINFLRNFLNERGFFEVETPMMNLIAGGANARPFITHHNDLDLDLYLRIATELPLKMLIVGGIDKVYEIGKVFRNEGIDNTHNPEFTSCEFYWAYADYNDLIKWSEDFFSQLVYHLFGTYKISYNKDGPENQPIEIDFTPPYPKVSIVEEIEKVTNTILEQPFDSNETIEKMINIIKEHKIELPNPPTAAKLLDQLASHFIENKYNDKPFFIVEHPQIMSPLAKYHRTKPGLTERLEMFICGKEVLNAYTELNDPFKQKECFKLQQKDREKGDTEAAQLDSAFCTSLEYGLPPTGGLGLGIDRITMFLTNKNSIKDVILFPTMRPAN
Calcium-dependent protein kinase 1, sequence (P62344 whole entry): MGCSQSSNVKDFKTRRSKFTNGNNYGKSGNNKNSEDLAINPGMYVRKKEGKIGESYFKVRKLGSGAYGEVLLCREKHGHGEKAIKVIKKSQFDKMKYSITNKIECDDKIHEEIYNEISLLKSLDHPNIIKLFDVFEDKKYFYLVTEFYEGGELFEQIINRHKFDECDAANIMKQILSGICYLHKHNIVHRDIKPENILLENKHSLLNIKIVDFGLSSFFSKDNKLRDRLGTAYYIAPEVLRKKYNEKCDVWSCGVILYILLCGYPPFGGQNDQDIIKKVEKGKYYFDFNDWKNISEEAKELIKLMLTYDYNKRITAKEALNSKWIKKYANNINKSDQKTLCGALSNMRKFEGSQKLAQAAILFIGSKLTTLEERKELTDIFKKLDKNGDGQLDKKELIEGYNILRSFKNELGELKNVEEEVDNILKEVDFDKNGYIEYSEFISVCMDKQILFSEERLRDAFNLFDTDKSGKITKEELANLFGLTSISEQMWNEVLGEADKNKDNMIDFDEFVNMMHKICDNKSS

COc1ccc(-c2cc3c(nn2)-c2ccccc2C3=O)cc1
IC50 [1]: > 1 µM | IC50 (Proline--tRNA ligase): > 2.5 µM | IC50 [2]: > 1 µM | IC50 [3]: > 1 µM | IC50 (Lysine--tRNA ligase): > 2.5 µM | IC50 [4]: > 1 µM | IC50 [5]: > 1 µM

COc1ccc(CN2CCCC(C(=O)c3ccc(C(F)(F)F)cc3)C2)c(O)c1 (stereo not given)
IC50 [1]: > 1 µM | IC50 (Proline--tRNA ligase): > 2.5 µM | IC50 [2]: > 1 µM | IC50 [3]: > 1 µM | IC50 (Lysine--tRNA ligase): > 2.5 µM | IC50 [4]: > 1 µM | IC50 [5]: > 1 µM

O=C(NC1CCCCC1)C(c1cccs1)N(CCc1ccccc1)C(=O)c1ccco1 (stereo not given)
IC50 [1]: > 1 µM | IC50 (Proline--tRNA ligase): > 2.5 µM | IC50 [2]: > 1 µM | IC50 [3]: > 1 µM | IC50 (Lysine--tRNA ligase): > 2.5 µM | IC50 [4]: > 1 µM | IC50 [5]: > 1 µM

Brc1ccc(Nc2nc3ccccc3nc2Nc2ccc(Br)cc2)cc1
IC50 [1]: > 1 µM | IC50 (Proline--tRNA ligase): > 2.5 µM | IC50 [2]: > 1 µM | IC50 [3]: > 1 µM | IC50 (Lysine--tRNA ligase): > 2.5 µM | IC50 [4]: > 1 µM | IC50 [5]: > 1 µM

Cc1cc(Nc2ccc(OCc3ccccc3)cc2)nc2cc(O)ccc12
IC50 [1]: > 1 µM | IC50 (Proline--tRNA ligase): > 2.5 µM | IC50 [2]: > 1 µM | IC50 [3]: > 1 µM | IC50 (Lysine--tRNA ligase): > 2.5 µM | IC50 [4]: > 1 µM | IC50 [5]: > 1 µM

N=c1c2ccccc2nnn1-c1cccc(C(F)(F)F)c1
IC50 [1]: > 1 µM | IC50 (Proline--tRNA ligase): > 2.5 µM | IC50 [2]: > 1 µM | IC50 [3]: > 1 µM | IC50 (Lysine--tRNA ligase): > 2.5 µM | IC50 [4]: > 1 µM | IC50 [5]: > 1 µM

COc1cc(-c2nc(-c3ccc(Sc4ccccc4)cc3)c(-c3ccccc3)[nH]2)cc(OC)c1O
IC50 [1]: > 1 µM | IC50 (Proline--tRNA ligase): > 2.5 µM | IC50 [2]: > 1 µM | IC50 [3]: > 1 µM | IC50 (Lysine--tRNA ligase): > 2.5 µM | IC50 [4]: > 1 µM | IC50 [5]: > 1 µM

OC(Cn1nnc2ccccc21)Cn1c2ccc(Br)cc2c2cc(Br)ccc21 (stereo not given)
IC50 [1]: > 1 µM | IC50 (Proline--tRNA ligase): > 2.5 µM | IC50 [2]: > 1 µM | IC50 [3]: > 1 µM | IC50 (Lysine--tRNA ligase): > 2.5 µM | IC50 [4]: > 1 µM | IC50 [5]: > 1 µM

Cc1ccccc1OCCSc1nc2ccc(NC(=O)c3cccs3)cc2s1
IC50 [1]: > 1 µM | IC50 (Proline--tRNA ligase): > 2.5 µM | IC50 [2]: > 1 µM | IC50 [3]: > 1 µM | IC50 (Lysine--tRNA ligase): > 2.5 µM | IC50 [4]: > 1 µM | IC50 [5]: > 1 µM

CCN(CC)CCCNc1ccnc2cc3ccccc3cc12
IC50 [1]: > 1 µM | IC50 (Proline--tRNA ligase): > 2.5 µM | IC50 [2]: > 1 µM | IC50 [3]: > 1 µM | IC50 (Lysine--tRNA ligase): > 2.5 µM | IC50 [4]: > 1 µM | IC50 [5]: > 1 µM
